Assays:
Assay in all cases: relative viability vs DMSO control (72 h) (fraction); higher = more viable cells
[1] = system: G401
Outline: (§1)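 Plates held 72 h at 37 °C and 5% CO2 contained sarcoma cell lines seeded in 384-well format to reach 80–90% confluence, plus 2.5 µl of serially diluted compound added after 24 h. Source plate concentrations ran from 10 mM to 0.0002 mM, with 0.1% DMSO as vehicle and a 5 µM positive control. Percent growth from ATPLite readings, averaged over up to triplicate wells, gave relative viability. Values were rescaled with 1 as full and 0 as none.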

[2] = system: SK-ES-1
Outline: as §1

[3] = system: SW1353
Outline: as §1

[4] = system: RD-ES
Outline: as §1

[5] = system: SW872
Outline: as §1

[6] = system: RD
Outline: as §1

[7] = system: SK-LMS-1
Outline: as §1

[8] = system: VA-ES-BJ
Outline: as §1

[9] = system: SW684
Outline: as §1

[10] = system: MES-SA
Outline: as §1

[11] = system: KHOS-NP
Outline: as §1

[12] = system: HT1080
Outline: as §1

CCC(=O)N1CC[C@H](Nc2ncnc3c2CN(c2cnc(OC)c(C(F)(F)F)c2)CC3)C1 [Leniolisib]
Settings	relative viability
[1], 0.00017 µM	1.02
[1], 0.00051 µM	1
[1], 0.00152 µM	1.01
[1], 0.00457 µM	1.01
[1], 0.01372 µM	1.02
[1], 0.04115 µM	0.973
[1], 0.1235 µM	0.947
[1], 0.3704 µM	0.936
[1], 1.111 µM	0.868
[1], 3.333 µM	0.835
[1], 10 µM	0.689
[2], 0.00017 µM	1.04
[2], 0.00051 µM	1.02
[2], 0.00152 µM	1.07
[2], 0.00457 µM	1.02
[2], 0.01372 µM	1.04
[2], 0.04115 µM	1.05
[2], 0.1235 µM	1.01
[2], 0.3704 µM	1
[2], 1.111 µM	0.999
[2], 3.333 µM	0.898
[2], 10 µM	0.741
[3], 0.00017 µM	1.02
[3], 0.00051 µM	1.04
[3], 0.00152 µM	0.985
[3], 0.00457 µM	0.999
[3], 0.01372 µM	0.97
[3], 0.04115 µM	0.9439
[3], 0.1235 µM	0.953
[3], 0.3704 µM	0.931
[3], 1.111 µM	0.885
[3], 3.333 µM	0.826
[3], 10 µM	0.692
[4], 0.00017 µM	0.985
[4], 0.00051 µM	1.034
[4], 0.00152 µM	1.03
[4], 0.00457 µM	1.03
[4], 0.01372 µM	1
[4], 0.04115 µM	1.02
[4], 0.1235 µM	0.989
[4], 0.3704 µM	0.958
[4], 1.111 µM	0.908
[4], 3.333 µM	0.856
[4], 10 µM	0.709
[5], 0.00017 µM	1.1
[5], 0.00051 µM	1.09
[5], 0.00152 µM	1.07
[5], 0.00457 µM	1.06
[5], 0.01372 µM	1.06
[5], 0.04115 µM	1.03
[5], 0.1235 µM	1.03
[5], 0.3704 µM	1.03
[5], 1.111 µM	0.951
[5], 3.333 µM	0.907
[5], 10 µM	0.688
[6], 0.00017 µM	1.08
[6], 0.00051 µM	1.09
[6], 0.00152 µM	1.11
[6], 0.00457 µM	1.11
[6], 0.01372 µM	1.12
[6], 0.04115 µM	1.09
[6], 0.1235 µM	1.09
[6], 0.3704 µM	1.11
[6], 1.111 µM	1.09
[6], 3.333 µM	1.05
[6], 10 µM	0.886
[7], 0.00017 µM	1.11
[7], 0.00051 µM	1.07
[7], 0.00152 µM	1.1
[7], 0.00457 µM	1.08
[7], 0.01372 µM	1.05
[7], 0.04115 µM	1.04
[7], 0.1235 µM	1.06
[7], 0.3704 µM	0.998
[7], 1.111 µM	0.939
[7], 3.333 µM	0.827
[7], 10 µM	0.712
[8], 0.00017 µM	1.08
[8], 0.00051 µM	1.09
[8], 0.00152 µM	1.05
[8], 0.00457 µM	1.04
[8], 0.01372 µM	1.02
[8], 0.04115 µM	1.06
[8], 0.1235 µM	1.01
[8], 0.3704 µM	1
[8], 1.111 µM	0.984
[8], 3.333 µM	0.88
[8], 10 µM	0.645
[9], 0.00017 µM	1.091
[9], 0.00051 µM	1.14
[9], 0.00152 µM	1.14
[9], 0.00457 µM	1.14
[9], 0.01372 µM	1.15
[9], 0.04115 µM	1.03
[9], 0.1235 µM	0.912
[9], 0.3704 µM	0.793
[9], 1.111 µM	0.742
[9], 3.333 µM	0.674
[9], 10 µM	0.548
[10], 0.00017 µM	0.966
[10], 0.00051 µM	0.94
[10], 0.00152 µM	0.932
[10], 0.00457 µM	0.934
[10], 0.01372 µM	0.936
[10], 0.04115 µM	0.906
[10], 0.1235 µM	0.922
[10], 0.3704 µM	0.895
[10], 1.111 µM	0.8678
[10], 3.333 µM	0.786
[10], 10 µM	0.585
[11], 0.00017 µM	1.11
[11], 0.00051 µM	1.11
[11], 0.00152 µM	1.09
[11], 0.00457 µM	1.101
[11], 0.01372 µM	1.08
[11], 0.04115 µM	1.07
[11], 0.1235 µM	1.07
[11], 0.3704 µM	1.061
[11], 1.111 µM	1.05
[11], 3.333 µM	1.05
[11], 10 µM	0.96
[12], 0.00017 µM	1.09
[12], 0.00051 µM	1.077
[12], 0.00152 µM	1.1
[12], 0.00457 µM	1.09
[12], 0.01372 µM	1.05
[12], 0.04115 µM	1.038
[12], 0.1235 µM	1.05
[12], 0.3704 µM	1.04
[12], 1.111 µM	1.03
[12], 3.333 µM	1.04
[12], 10 µM	0.94

C[C@]12O[C@H](C[C@]1(O)CO)n1c3ccccc3c3c4c(c5c6ccccc6n2c5c31)CNC4=O [Lestaurtinib]
Settings	relative viability
[1], 0.00017 µM	1.01
[1], 0.00051 µM	0.985
[1], 0.00152 µM	1.03
[1], 0.00457 µM	1.02
[1], 0.01372 µM	1.03
[1], 0.04115 µM	0.996
[1], 0.1235 µM	0.985
[1], 0.3704 µM	0.912
[1], 1.111 µM	0.718
[1], 3.333 µM	0.023
[1], 10 µM	0.00583
[2], 0.00017 µM	1.1
[2], 0.00051 µM	1.06
[2], 0.00152 µM	1.07
[2], 0.00457 µM	1
[2], 0.01372 µM	0.881
[2], 0.04115 µM	0.543
[2], 0.1235 µM	0.329
[2], 0.3704 µM	0.0863
[2], 1.111 µM	0.0742
[2], 3.333 µM	0.0554
[2], 10 µM	0.0776
[3], 0.00017 µM	1.04
[3], 0.00051 µM	1.01
[3], 0.00152 µM	1
[3], 0.00457 µM	0.975
[3], 0.01372 µM	0.943
[3], 0.04115 µM	0.868
[3], 0.1235 µM	0.756
[3], 0.3704 µM	0.698
[3], 1.111 µM	0.6462
[3], 3.333 µM	0.375
[3], 10 µM	0.155
[4], 0.00017 µM	0.996
[4], 0.00051 µM	1
[4], 0.00152 µM	0.999
[4], 0.00457 µM	0.989
[4], 0.01372 µM	0.936
[4], 0.04115 µM	0.804
[4], 0.1235 µM	0.497
[4], 0.3704 µM	0.288
[4], 1.111 µM	0.16
[4], 3.333 µM	0.0482
[4], 10 µM	0.0633
[5], 0.00017 µM	1.08
[5], 0.00051 µM	1.07
[5], 0.00152 µM	1.04
[5], 0.00457 µM	1.03
[5], 0.01372 µM	0.955
[5], 0.04115 µM	0.803
[5], 0.1235 µM	0.648
[5], 0.3704 µM	0.507
[5], 1.111 µM	0.358
[5], 3.333 µM	0.267
[5], 10 µM	0.0094
[6], 0.00017 µM	1.05
[6], 0.00051 µM	1.064
[6], 0.00152 µM	1.09
[6], 0.00457 µM	1.09
[6], 0.01372 µM	1.1
[6], 0.04115 µM	1.06
[6], 0.1235 µM	1.01
[6], 0.3704 µM	0.892
[6], 1.111 µM	0.645
[6], 3.333 µM	0.326
[6], 10 µM	0.126
[7], 0.00017 µM	1.08
[7], 0.00051 µM	1.1
[7], 0.00152 µM	1.06
[7], 0.00457 µM	1.04
[7], 0.01372 µM	1.01
[7], 0.04115 µM	0.878
[7], 0.1235 µM	0.722
[7], 0.3704 µM	0.669
[7], 1.111 µM	0.541
[7], 3.333 µM	0.353
[7], 10 µM	0.146
[8], 0.00017 µM	1.06
[8], 0.00051 µM	1.06
[8], 0.00152 µM	1.06
[8], 0.00457 µM	1.03
[8], 0.01372 µM	0.953
[8], 0.04115 µM	0.838
[8], 0.1235 µM	0.657
[8], 0.3704 µM	0.544
[8], 1.111 µM	0.42
[8], 3.333 µM	0.176
[8], 10 µM	-0.00757
[9], 0.00017 µM	1.15
[9], 0.00051 µM	1.18
[9], 0.00152 µM	1.16
[9], 0.00457 µM	1.17
[9], 0.01372 µM	1.18
[9], 0.04115 µM	1.13
[9], 0.1235 µM	1.11
[9], 0.3704 µM	0.913
[9], 1.111 µM	0.659
[9], 3.333 µM	0.346
[9], 10 µM	0.0527
[10], 0.00017 µM	0.966
[10], 0.00051 µM	0.928
[10], 0.00152 µM	0.947
[10], 0.00457 µM	0.947
[10], 0.01372 µM	0.874
[10], 0.04115 µM	0.751
[10], 0.1235 µM	0.538
[10], 0.3704 µM	0.333
[10], 1.111 µM	0.2911
[10], 3.333 µM	0.164
[10], 10 µM	0.00447
[11], 0.00017 µM	1.11
[11], 0.00051 µM	1.108
[11], 0.00152 µM	1.11
[11], 0.00457 µM	1.1
[11], 0.01372 µM	1.1
[11], 0.04115 µM	1.08
[11], 0.1235 µM	0.9051
[11], 0.3704 µM	0.785
[11], 1.111 µM	0.471
[11], 3.333 µM	0.205
[11], 10 µM	0.091
[12], 0.00017 µM	1.09
[12], 0.00051 µM	1.11
[12], 0.00152 µM	1.1
[12], 0.00457 µM	1.12
[12], 0.01372 µM	1.09
[12], 0.04115 µM	1.12
[12], 0.1235 µM	0.915
[12], 0.3704 µM	0.877
[12], 1.111 µM	0.689
[12], 3.333 µM	0.185
[12], 10 µM	0.0222

From the supplement of paper PMC10883282
